According to patent US6218417A, “Ace-inhibitor nitric salts” (priority 1997, dated 2001):
Where a name gives a salt, the structure may show the parent alone.

Tests used:
[1] = tested on: platelet aggregation (collagen-induced); test: Platelet-antiaggregating activity, in-vivo collagen model (Pinon et al.); set-up: species or system rats; details: 10 mg/Kg/os per day (as Enalapril cation) for five days; collagen 2 mg/Kg i.v.; referred to control group
Protocol: The in-vivo model described by Pinon et al., J. Pharm. Methods 12, 79-84, 1984, was used.
Two groups of 6 rats each, weighing about 200 to 250 g, were treated with an oral. dose of 10 mg/Kg/die of Enalapril maleate or nitrate respectively (the dose is referred to the amount of Enalapril cation in the salt) for five days, while a third group acted as a control group. About 18 hours before the last treatment, the animals were fasted. One hour after this treatment the animals were anaesthetised with 10% ethyl urethane (1 g/Kg intraperitoneally) and the left jugular vein and the right carotid artery were cannulated. Collagen (type 6, Sigma) was then administered intravenously at a dose of 2 mg/Kg. Three minutes later two blood samples, A and B, were collected from the carotid artery of each animal.
1.6 ml of EDTA/formalin buffer (24 mM tetrasodium EDTA, 1.3 mM KH2 PO4, 13.4 mM Na2 HPO4) was added to the first sample (sample A) containing 0.4 ml of blood.
The second blood sample (sample B) had the same volume as the previous sample (0.4 ml of blood) but, instead of the buffer, 1.6 ml of a saline solution (physiological NaCl solution) was added. […]
A microscope platelet count was then performed. […] The results shown in Table III are expressed as a % of platelet aggregation and are referred to the % value obtained in the control group.

[2] = tested on: angiotensin-I-induced hypertension; test: Antihypertensive activity: inhibition of angiotensin I-induced hypertension (Laubie et al.); format: in vivo, rats; details: angiotensin I 100 μg/Kg i.v.
Protocol: The antihypertensive activity of the nitrate salts of the compounds of the invention was determined in accordance with the method of Laubie et al., J. Cardiovasc. Pharmacol. 6, 1076, 1984. No 6 rats weighing about 200 to 250 g were used per experimental group. Four groups were formed, which were intraperitoneally treated respectively as shown below:
The doses are referred to the amount of Enalapril (cation) in the salt. The antihypertensive response was evaluated as per-cent inhibition of the hypertension induced by the administration of a dose of 100 μg/Kg i.v. of angiotensin I as described in the above article.

[3] = tested on: bronchial spasm induced by substance P; test: Bronchial spasm induced by substance P (Subissi et al.; Konzett); format: in vivo, female Guinea pigs; details: for Tidal air change % in bronchial spasm induced by substance P: 30 minutes before substance P (200 μg/Kg)
Protocol: Activity was evaluated measuring the strengthening of bronchial spasm induced by substance P, determined in accordance with the method of Subissi et al., Br. J. Pharmacol. 100, 502-6, 1990. The model described by Subissi is predictive of bronchial side effects due to the administration of ACE inhibitors.
Four groups (6 animals/group) of female Guinea pigs weighing about 300 to 400 g were anaesthetised with ethyl urethane (200 mg/Kg) under artificial pressure at constant positive pressure. The compounds were administered intra-peritoneally 30 minutes before substance P. The salt doses administered were the same as in Example 4. The changes in tidal air were then measured in accordance wuth the method of Konzett, Arch. Exp. Pathol. Pharmacol. 195, 71, 1940, before and after the administration of substance P (200 μg/Kg), with or without the test salts, i.e. Enalapril maleate and nitrate.

[4] = 100 μg/Kg/i.p. (as Enalapril cation)
[5] = 300 μg/Kg/i.p. (as Enalapril cation)

Compound | Antiaggregating activity % [1] [%] | Inhibition % for angiotensin-I-induced hypertension [2, 4] [%] | Inhibition % for angiotensin-I-induced hypertension [2, 5] [%] | Tidal air change % in bronchial spasm induced by substance P ([3]; 100 μg/Kg/i.p.) | Tidal air change % in bronchial spasm induced by substance P ([3]; 300 μg/Kg/i.p.) | Respiratory profile ([3]; compared to Enalapril maleate, 100 and 300 μg/Kg i.p.)
CCOC(=O)[C@H](CCc1ccccc1)N[C@@H](C)C(=O)N1CCC[C@H]1C(=O)O [Enalapril maleate, reference compound] | 5 | 18 | 55 | +16% | +28% | –
CCOC(=O)[C@H](CCc1ccccc1)N[C@@H](C)C(=O)N1CCC[C@H]1C(=O)O [Enalapril nitrate, (S)-1-[N-[1-(ethoxycarbonyl)-3-phenylpropyl]-L-alanyl]-L-proline] | 58 | 35 | 67 | -5% | -7% | better respiratory profile than Enalapril maleate at both tested doses
